We go through twelve molecules from patent US9592221B2, “Antibacterial agents: aryl myxopyronin derivatives” (priority 2012, dated 2017).

In one assay the test system is Yersinia pestis C092. Briefly: microbe, parasite or virus in culture. It is filed as cell-based. To be noted: Yersinia pestis, C092, read-out: MIC Y. pestis C092.
Assay [1] has as its system Mycobacterium tuberculosis H37Rv. Briefly: MIC, microplate Alamar Blue assay, M. tuberculosis. It is filed as cell-based. (Alamar Blue is a resazurin reagent that responds to reducing activity.)
Assay [2] has as its system Escherichia coli D21f2tolC. Briefly: MIC, spiral gradient endpoint assay, E. coli D21f2tolC. It is filed as cell-based. Conditions: Escherichia coli, D21F2TOLC, read-out: MIC E. coli D21f2toIC.
In assay [3] the test system is Staphylococcus aureus ATCC 12600. Briefly: MIC, spiral gradient endpoint assay, S. aureus ATCC 12600. The format is cell-based. To be noted: ATCC12600; Staphylococcus aureus ATCC 12600.
For assay [4], the system named is Burkholderia pseudomallei Human/Blood/OH/US/1994. In words: microbe, parasite or virus in culture. It is filed as cell-based. To be noted: Burkholderia pseudomallei, read-out: MIC B. pseudomallei Human/Blood/OH.
The next assay has as its system Brucella melitensis 16M. In words: microbe, parasite or virus in culture. The format is cell-based. Conditions: Brucella melitensis, 16M, read-out: MIC B. melitensis 16M.
The test system of assay [5] is Bacillus anthracis Vollum 1b. In words: microbe, parasite or virus in culture. It is filed as cell-based. Conditions: Bacillus anthracis, VOLLUM1B, read-out: MIC B. anthracis Vollum-1b.
The test system of the next assay is Burkholderia mallei CHN7. In words: microbe, parasite or virus in culture. The format is cell-based. Conditions: Burkholderia mallei, CHN7, read-out: MIC B. mallei CHN7.
Assay [6] deals with Francisella tularensis SCHU4. Briefly: microbe, parasite or virus in culture. The format is cell-based. Conditions: Francisella tularensis, SCHU4, read-out: MIC F. tularensis SCHU4.
Assay [7] concerns Acinetobacter baumannii ATCC 19606. Briefly: MIC, spiral gradient endpoint assay, A. baumannii. The format is cell-based. To be noted: ATCC19606; Acinetobacter baumannii ATCC 19606.
Assay [8] concerns the target E. coli RNA polymerase σ^70 holoenzyme (Escherichia coli, UniProt P0A8T7+P0A8V2). In words: Fluorescence-detected RNA polymerase assay, E. coli RNA polymerase. The format is biochemical. Conditions: read-out: IC50 E. coli RNAP.

Bounds are passed on as bounds.

E. coli RNA polymerase σ^70 holoenzyme, sequence (P0A8T7 whole entry): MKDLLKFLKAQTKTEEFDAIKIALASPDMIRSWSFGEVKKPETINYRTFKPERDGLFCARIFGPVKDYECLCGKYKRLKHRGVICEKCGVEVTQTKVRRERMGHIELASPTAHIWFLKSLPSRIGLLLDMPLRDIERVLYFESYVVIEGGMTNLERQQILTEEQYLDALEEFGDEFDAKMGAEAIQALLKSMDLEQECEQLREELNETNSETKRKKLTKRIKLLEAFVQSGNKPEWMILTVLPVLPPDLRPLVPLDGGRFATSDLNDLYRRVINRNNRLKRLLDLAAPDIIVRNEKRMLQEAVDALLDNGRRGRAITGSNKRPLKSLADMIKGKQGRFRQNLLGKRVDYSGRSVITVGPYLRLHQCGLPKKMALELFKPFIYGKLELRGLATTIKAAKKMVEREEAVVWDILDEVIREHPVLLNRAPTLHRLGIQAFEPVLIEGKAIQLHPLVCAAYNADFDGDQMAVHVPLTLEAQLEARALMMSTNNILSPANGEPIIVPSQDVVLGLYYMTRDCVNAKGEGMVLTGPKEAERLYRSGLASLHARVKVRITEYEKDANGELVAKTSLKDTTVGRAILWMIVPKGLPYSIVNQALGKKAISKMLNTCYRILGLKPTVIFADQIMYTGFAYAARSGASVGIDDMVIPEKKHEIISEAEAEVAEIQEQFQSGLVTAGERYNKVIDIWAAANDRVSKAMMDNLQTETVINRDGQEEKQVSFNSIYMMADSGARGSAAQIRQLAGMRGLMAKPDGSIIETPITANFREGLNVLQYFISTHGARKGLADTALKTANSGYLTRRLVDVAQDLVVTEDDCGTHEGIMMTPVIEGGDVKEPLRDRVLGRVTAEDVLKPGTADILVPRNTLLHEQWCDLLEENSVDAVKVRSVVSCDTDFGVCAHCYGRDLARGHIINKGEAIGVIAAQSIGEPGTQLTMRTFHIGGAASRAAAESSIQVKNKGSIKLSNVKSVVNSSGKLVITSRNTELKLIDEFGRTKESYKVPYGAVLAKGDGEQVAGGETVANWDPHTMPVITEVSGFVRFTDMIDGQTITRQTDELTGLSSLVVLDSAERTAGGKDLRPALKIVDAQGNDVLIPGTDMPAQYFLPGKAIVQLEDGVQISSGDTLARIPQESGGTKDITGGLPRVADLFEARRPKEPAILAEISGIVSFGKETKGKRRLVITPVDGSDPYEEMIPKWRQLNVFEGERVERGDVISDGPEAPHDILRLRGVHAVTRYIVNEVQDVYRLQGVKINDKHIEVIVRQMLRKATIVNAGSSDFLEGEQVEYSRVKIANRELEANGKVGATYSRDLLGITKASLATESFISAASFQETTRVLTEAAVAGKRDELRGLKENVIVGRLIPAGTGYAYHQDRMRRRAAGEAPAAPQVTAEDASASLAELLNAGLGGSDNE
E. coli RNA polymerase σ^70 holoenzyme, sequence (P0A800 whole entry, further chain): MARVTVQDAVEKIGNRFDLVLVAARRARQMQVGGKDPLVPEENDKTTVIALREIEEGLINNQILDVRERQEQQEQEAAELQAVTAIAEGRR
E. coli RNA polymerase σ^70 holoenzyme, sequence (P0A8V2 whole entry): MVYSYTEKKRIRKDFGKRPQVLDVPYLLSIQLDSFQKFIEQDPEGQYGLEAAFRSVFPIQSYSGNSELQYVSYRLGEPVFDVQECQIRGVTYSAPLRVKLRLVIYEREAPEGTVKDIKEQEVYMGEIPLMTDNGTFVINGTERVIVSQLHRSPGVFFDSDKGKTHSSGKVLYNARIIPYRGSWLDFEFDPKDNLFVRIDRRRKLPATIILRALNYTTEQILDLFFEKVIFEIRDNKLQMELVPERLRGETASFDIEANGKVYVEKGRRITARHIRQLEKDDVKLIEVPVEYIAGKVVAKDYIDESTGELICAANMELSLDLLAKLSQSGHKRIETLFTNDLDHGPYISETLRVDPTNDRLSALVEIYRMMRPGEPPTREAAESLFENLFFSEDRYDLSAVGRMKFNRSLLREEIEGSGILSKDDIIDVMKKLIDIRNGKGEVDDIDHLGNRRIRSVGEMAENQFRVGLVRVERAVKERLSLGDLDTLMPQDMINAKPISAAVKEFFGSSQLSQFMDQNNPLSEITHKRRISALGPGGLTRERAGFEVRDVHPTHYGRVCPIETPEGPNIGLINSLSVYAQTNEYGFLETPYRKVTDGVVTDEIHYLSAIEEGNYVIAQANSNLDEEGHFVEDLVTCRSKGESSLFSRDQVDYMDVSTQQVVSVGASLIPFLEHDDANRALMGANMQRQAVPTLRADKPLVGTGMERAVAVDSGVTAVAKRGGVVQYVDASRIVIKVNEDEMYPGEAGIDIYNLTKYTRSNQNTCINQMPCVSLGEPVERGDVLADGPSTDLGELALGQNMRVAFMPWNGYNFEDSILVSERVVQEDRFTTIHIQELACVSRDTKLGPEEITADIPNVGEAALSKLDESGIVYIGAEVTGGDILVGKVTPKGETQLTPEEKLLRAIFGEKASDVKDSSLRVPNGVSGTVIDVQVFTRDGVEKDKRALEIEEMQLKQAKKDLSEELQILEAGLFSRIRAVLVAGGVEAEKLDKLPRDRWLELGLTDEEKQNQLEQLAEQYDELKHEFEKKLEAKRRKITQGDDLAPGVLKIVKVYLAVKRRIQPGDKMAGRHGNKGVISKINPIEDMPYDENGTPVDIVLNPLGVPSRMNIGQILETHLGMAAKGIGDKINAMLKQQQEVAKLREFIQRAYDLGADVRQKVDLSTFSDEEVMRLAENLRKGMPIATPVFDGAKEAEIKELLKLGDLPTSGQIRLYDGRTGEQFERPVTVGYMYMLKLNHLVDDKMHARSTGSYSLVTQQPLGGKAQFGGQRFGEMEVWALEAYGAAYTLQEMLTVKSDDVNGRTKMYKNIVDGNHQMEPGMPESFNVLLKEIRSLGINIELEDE
E. coli RNA polymerase σ^70 holoenzyme, sequence (P00579 whole entry, further chain): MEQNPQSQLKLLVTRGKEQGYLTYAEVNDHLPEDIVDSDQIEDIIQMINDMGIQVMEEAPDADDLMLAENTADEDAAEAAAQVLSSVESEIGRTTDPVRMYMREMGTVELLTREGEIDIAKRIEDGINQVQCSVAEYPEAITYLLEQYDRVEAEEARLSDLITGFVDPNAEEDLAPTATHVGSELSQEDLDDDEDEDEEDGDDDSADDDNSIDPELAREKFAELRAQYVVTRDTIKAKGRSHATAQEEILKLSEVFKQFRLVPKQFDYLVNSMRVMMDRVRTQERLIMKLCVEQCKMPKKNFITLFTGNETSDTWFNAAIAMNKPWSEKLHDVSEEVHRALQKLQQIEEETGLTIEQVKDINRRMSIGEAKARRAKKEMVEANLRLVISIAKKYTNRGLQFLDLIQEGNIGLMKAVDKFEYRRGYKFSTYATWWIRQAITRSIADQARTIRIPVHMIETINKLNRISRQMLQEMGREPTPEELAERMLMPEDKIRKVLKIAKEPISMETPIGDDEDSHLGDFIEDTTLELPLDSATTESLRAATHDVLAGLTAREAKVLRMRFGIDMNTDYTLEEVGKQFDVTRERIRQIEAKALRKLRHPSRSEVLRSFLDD
E. coli RNA polymerase σ^70 holoenzyme, sequence (P0A7Z4 whole entry, further chain): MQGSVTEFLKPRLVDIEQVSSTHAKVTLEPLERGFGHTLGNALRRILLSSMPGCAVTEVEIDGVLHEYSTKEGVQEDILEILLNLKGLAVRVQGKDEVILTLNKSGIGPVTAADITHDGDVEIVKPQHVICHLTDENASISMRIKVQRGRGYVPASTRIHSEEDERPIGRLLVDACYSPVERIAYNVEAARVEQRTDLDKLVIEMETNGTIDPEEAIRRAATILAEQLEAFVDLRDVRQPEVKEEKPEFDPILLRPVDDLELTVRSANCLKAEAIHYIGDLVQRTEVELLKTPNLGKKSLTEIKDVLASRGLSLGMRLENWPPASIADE

As for `CCCOc1ccc(C=C(C)C(=O)c2c(O)cc(C(C)CC/C=C/NC(=O)OC)oc2=O)cc1` (mixture of isomers) [APY40, methyl (E)-5-(4-hydroxy-3-((E/Z)-2-methyl-3-(4-propoxyphenyl)acryloyl)-2-oxo-2H-pyran-6-yl)hex-1-enylcarbamate], the MIC with Yersinia pestis C092 was over 50 µg/mL; in assay [1] it was 6 µg/mL; in assay [2], 0.4 µg/mL; in [3], 1 µg/mL; in assay [4] it was over 50 µg/mL; in the assay on Brucella melitensis 16M, 3 µg/mL. Moreover, the MIC in assay [5] is 10 µg/mL; in the assay on Burkholderia mallei CHN7, over 50 µg/mL; in assay [6], over 50 µg/mL; in assay [7], 9 µg/mL. In assay [8], the IC50 stood at 10 nM.

Consider `COC(=O)N/C=C/CCC(C)c1cc(O)c(C(=O)C(C)=Cc2cccc(OCCC(C)(C)C)c2)c(=O)o1` (mixture of isomers) [APY49, methyl (E)-5-(3-((E/Z)-3-(3-(3,3-dimethylbutoxy)phenyl)-2-methylacryloyl)-4-hydroxy-2-oxo-2H-pyran-6-yl)hex-1-enylcarbamate], for which the MIC in the assay with Yersinia pestis C092 was over 50 µg/mL; in assay [1], 50 µg/mL; in [2], 0.3 µg/mL; in [3] it was over 40 µg/mL; in assay [4], over 50 µg/mL; with Brucella melitensis 16M it was 10 µg/mL. In addition, the MIC was 10 µg/mL in assay [5], 50 µg/mL with Burkholderia mallei CHN7, 30 µg/mL in [6] and over 40 µg/mL in [7]. The IC50 in assay [8] worked out at 10 nM.

For the molecule `CCCCc1ccc(C=CC(=O)c2c(O)cc(C(C)CC/C=C/NC(=O)OC)oc2=O)s1` (mixture of isomers) [APY36, methyl (E)-5-(3-((E/Z)-3-(5-butylthiophen-2-yl)acryloyl)-4-hydroxy-2-oxo-2H-pyran-6-yl)hex-1-enylcarbamate], the MIC with Yersinia pestis C092 is over 50 µg/mL; in [1] it was 30 µg/mL; in [2], 0.7 µg/mL; in [3] it was over 40 µg/mL; in assay [4] it was over 50 µg/mL; in the assay with Brucella melitensis 16M, over 50 µg/mL. For the same molecule, the MIC in assay [5] is 6 µg/mL; in the assay on Burkholderia mallei CHN7, over 50 µg/mL; in [6] it was 6 µg/mL; in assay [7], over 40 µg/mL. Also, the IC50 in [8] amounted to 300 nM.

Consider `COC(=O)N/C=C/CCC(C)c1cc(O)c(C(=O)C(C)=Cc2ccc(OCCC(F)(F)F)s2)c(=O)o1` (mixture of isomers) [APY139, methyl ((1E)-5-(4-hydroxy-3-(2-methyl-3-(5-(3,3,3-trifluoropropoxy)thiophen-2-yl)acryloyl)-2-oxo-2H-pyran-6-yl)hex-1-en-1-yl)carbamate], for which the MIC in the assay with Yersinia pestis C092 was 10 µg/mL; in [1], 6 µg/mL; in assay [2] it was 0.2 µg/mL; in [3], 2 µg/mL; in assay [4] it was over 50 µg/mL; in the assay on Brucella melitensis 16M, 10 µg/mL. Also, the MIC was 6 µg/mL in assay [5], 50 µg/mL in the assay on Burkholderia mallei CHN7, over 50 µg/mL in [6] and over 40 µg/mL in assay [7]. For the same molecule, the IC50 in assay [8] was 30 nM.

Turning to `CCCCOc1ccc(C=C(C)C(=O)c2c(O)cc(C(C)CC/C=C/NC(=O)OC)oc2=O)cc1` (mixture of isomers) [APY39, methyl (E)-5-(3-((E/Z)-3-(4-butoxyphenyl)-2-methylacryloyl)-4-hydroxy-2-oxo-2H-pyran-6-yl)hex-1-enylcarbamate], the MIC in the assay on Yersinia pestis C092 came to 30 µg/mL; in assay [1] it was 3 µg/mL; in assay [2], 0.2 µg/mL; in assay [3] it was 1 µg/mL; in assay [4], 50 µg/mL; with Brucella melitensis 16M, 0.4 µg/mL. In addition, the MIC in assay [5] was 3 µg/mL; in the assay with Burkholderia mallei CHN7, 10 µg/mL; in assay [6], 30 µg/mL; in assay [7], over 40 µg/mL. For the same molecule, the half-inhibitory concentration (IC50) in assay [8] amounted to 80 nM.

For `CCCCCCc1ccc(C=C(C)C(=O)c2c(O)cc(C(C)CC/C=C/NC(=O)OC)oc2=O)cn1` (mixture of isomers) [APY37, methyl (E)-5-(3-((E/Z)-3-(6-hexylpyridin-3-yl)-2-methylacryloyl)-4-hydroxy-2-oxo-2H-pyran-6-yl)hex-1-enylcarbamate], the MIC in the assay on Yersinia pestis C092 is over 50 µg/mL; in assay [1] it was over 50 µg/mL; in [2], 0.6 µg/mL; in assay [3] it was over 40 µg/mL; in assay [4] it was over 50 µg/mL; with Brucella melitensis 16M it was 10 µg/mL. For the same molecule, the MIC in assay [5] was 50 µg/mL; in the assay on Burkholderia mallei CHN7, 50 µg/mL; in assay [6], 50 µg/mL; in assay [7], over 40 µg/mL. For the same molecule, the IC50 in [8] amounted to 90 nM.

As to `COC(=O)N/C=C/CCC(C)c1cc(O)c(C(=O)C(C)=Cc2ccc(CCC(F)(F)F)cc2C)c(=O)o1` (mixture of isomers) [APY127, methyl ((1E)-5-(4-hydroxy-3-(2-methyl-3-(2-methyl-4-(3,3,3-trifluoropropyl)phenyl)acryloyl)-2-oxo-2H-pyran-6-yl)hex-1-en-1-yl)carbamate], the MIC came to 50 µg/mL with Yersinia pestis C092; 50 µg/mL in assay [1]; 0.4 µg/mL in assay [2]; 2 µg/mL in [3]; 50 µg/mL in [4]; 50 µg/mL in the assay on Brucella melitensis 16M. Besides, the MIC in assay [5] was 6 µg/mL; with Burkholderia mallei CHN7, 50 µg/mL; in [6], over 50 µg/mL; in assay [7], over 40 µg/mL. Also, the concentration for half-maximal inhibition (IC50) in assay [8] was determined as 70 nM.

With `COC(=O)N/C=C/CCC(C)c1cc(O)c(C(=O)C(C)=Cc2cc(Br)c(CC(C)C)s2)c(=O)o1` (mixture of isomers) [APY120, methyl ((1E)-5-(3-(3-(4-bromo-5-isobutylthiophen-2-yl)-2-methylacryloyl)-4-hydroxy-2-oxo-2H-pyran-6-yl)hex-1-en-1-yl)carbamate], the MIC with Yersinia pestis C092 was 6 µg/mL; in assay [1] it was over 50 µg/mL; in assay [2], 0.2 µg/mL; in assay [3], 1 µg/mL; in assay [4], 10 µg/mL; with Brucella melitensis 16M, 3 µg/mL. Also, the MIC in assay [5] stood at 2 µg/mL; in the assay on Burkholderia mallei CHN7 it was 6 µg/mL; in [6], 50 µg/mL; in assay [7], 30 µg/mL. In addition, in [8], the IC50 came to 20 nM.

As for `COC(=O)N/C=C/CCC(C)c1cc(O)c(C(=O)C(C)=Cc2ccc(OC(C)C)cc2C)c(=O)o1` (mixture of isomers) [APY130, methyl ((1E)-5-(4-hydroxy-3-(3-(4-isopropoxy-2-methylphenyl)-2-methylacryloyl)-2-oxo-2H-pyran-6-yl)hex-1-en-1-yl)carbamate], the MIC in the assay on Yersinia pestis C092 was over 50 µg/mL; in assay [1], 30 µg/mL; in assay [2], 2 µg/mL; in assay [3], 3 µg/mL; in [4], over 50 µg/mL; in the assay on Brucella melitensis 16M, over 50 µg/mL. For the same molecule, the MIC was 10 µg/mL in assay [5], over 50 µg/mL with Burkholderia mallei CHN7, over 50 µg/mL in assay [6] and over 40 µg/mL in assay [7]. Moreover, the IC50 in [8] is 200 nM.

For `COC(=O)N/C=C/CCC(C)c1cc(O)c(C(=O)C(C)=Cc2ccc(OCC(F)F)cc2C)c(=O)o1` (mixture of isomers) [APY131, methyl ((1E)-5-(3-(3-(4-(2,2-difluoroethoxy)-2-methylphenyl)-2-methylacryloyl)-4-hydroxy-2-oxo-2H-pyran-6-yl)hex-1-en-1-yl)carbamate], the MIC with Yersinia pestis C092 was over 50 µg/mL; in assay [1] it was 30 µg/mL; in [2], 0.7 µg/mL; in [3], 8 µg/mL; in assay [4], over 50 µg/mL; with Brucella melitensis 16M, over 50 µg/mL. Also, the MIC is 30 µg/mL in assay [5], over 50 µg/mL in the assay on Burkholderia mallei CHN7, over 50 µg/mL in assay [6] and over 40 µg/mL in [7]. The IC50 in assay [8] turned out to be 200 nM.

In the case of `COC(=O)N/C=C/CCC(C)c1cc(O)c(C(=O)C(C)=Cc2ccc(OCCC(F)(F)F)cc2)c(=O)o1` (mixture of isomers) [APY126, methyl ((1E)-5-(4-hydroxy-3-(2-methyl-3-(4-(3,3,3-trifluoropropoxy)phenyl)acryloyl)-2-oxo-2H-pyran-6-yl)hex-1-en-1-yl)carbamate], the MIC is 30 µg/mL in the assay with Yersinia pestis C092; 6 µg/mL in assay [1]; 0.3 µg/mL in assay [2]; 1 µg/mL in assay [3]; over 50 µg/mL in assay [4]; 10 µg/mL in the assay on Brucella melitensis 16M. The MIC in assay [5] was 3 µg/mL; with Burkholderia mallei CHN7, 50 µg/mL; in [6], over 50 µg/mL; in [7], over 40 µg/mL. The IC50 in [8] was 80 nM.

On to `COC(=O)N/C=C/CCC(C)c1cc(O)c(C(=O)C(C)=Cc2cc3cc(OC(C)C)ccc3n2C)c(=O)o1` (mixture of isomers) [APY123], for which the MIC with Yersinia pestis C092 is over 50 µg/mL; in assay [1] it was over 50 µg/mL; in [2] it was 2 µg/mL; in assay [3] it was over 40 µg/mL; in assay [4], over 50 µg/mL; in the assay on Brucella melitensis 16M, over 50 µg/mL. In addition, the MIC was over 50 µg/mL in assay [5], over 50 µg/mL in the assay on Burkholderia mallei CHN7, over 50 µg/mL in assay [6] and over 40 µg/mL in assay [7]. The IC50 in assay [8] stood at 500 nM.

As usually defined, the IC50 is the concentration that inhibits the measured activity by half.
